According to PMC4186413, “Identification of metabolic pathways and enzyme systems involved in the in vitro human hepatic metabolism of dronedarone, a potent new oral antiarrhythmic drug” (Pharmacology Research & Perspectives, 2014):

Experiments:
UGT2B15 = biological target: T1, UGT2B15 (Homo sapiens, UniProt P54855); experiment: Glucuronidation by recombinant human UGT2B15; assay type: in vitro ADME; conditions: 1 mg/mL, 5 μmol/L, 30 min, UDPGA
T1 construct: purchased BD Gentest (Woburn, MA); host or cells: baculovirus-infected insect cells
From the text: Recombinant human CYPs (Supersomes™; BD Gentes, Woburn, MA: CYP1A1, CYP1A2, CYP2A6, CYP2B6, CYP2C8, CYP2C9, CYP2C18, CYP2C19, CYP2D6, CYP2E1, CYP3A4 and CYP3A5), FMOs (Supersomes™: FMO1, FMO3, FMO5), MAOs (Supersomes™: MAO-A and MAO-B), and UGTs (Supersomes™: UGT1A1, UGT1A3, UGT1A4, UGT1A6, UGT1A7, UGT1A8, UGT1A9, UGT1A10, UGT2B4, UGT2B7, UGT2B15, and UGT2B17) expressed in baculovirus-infected insect cells and control microsomes from insect cells infected with wild-type baculovirus were all obtained from BD Gentest (Woburn, MA).
For glucuronidation pathways, the assay mixture was composed of human liver microsomes (2 mg·mL^−1) or microsomes of baculovirus-infected cells expressing human UGTs (1 mg·mL^−1), uridine 5′-diphosphoglucuronic acid (UDPGA) (3 mmol/L), 100 mmol/L Tris HCl (pH 7.4) containing 5 mmol/L MgCl2 and 5 μmol/L of the investigated compound dissolved in DMSO in a final volume of 500 μL. The final concentration of DMSO in the reaction mixture was less than 1% (v/v). […]
Figure 7 Contribution of individual UGTs to the glucuronidation of propanoic acid-dronedarone and phenol-dronedarone. […] Unchanged drugs were quantified by LC/MS-MS relative to the synthetic references as described in Materials and Methods. Data are expressed as the percentage of glucuronidation.

[1] = parameters: method as in Touboul et al. [2003]; Wadhani et al. [2006]; conditions: 400-mg twice daily, ref Touboul et al. [2003]; Wadhani et al. [2006]; cited from earlier work

T1 sequence (P54855 24-530): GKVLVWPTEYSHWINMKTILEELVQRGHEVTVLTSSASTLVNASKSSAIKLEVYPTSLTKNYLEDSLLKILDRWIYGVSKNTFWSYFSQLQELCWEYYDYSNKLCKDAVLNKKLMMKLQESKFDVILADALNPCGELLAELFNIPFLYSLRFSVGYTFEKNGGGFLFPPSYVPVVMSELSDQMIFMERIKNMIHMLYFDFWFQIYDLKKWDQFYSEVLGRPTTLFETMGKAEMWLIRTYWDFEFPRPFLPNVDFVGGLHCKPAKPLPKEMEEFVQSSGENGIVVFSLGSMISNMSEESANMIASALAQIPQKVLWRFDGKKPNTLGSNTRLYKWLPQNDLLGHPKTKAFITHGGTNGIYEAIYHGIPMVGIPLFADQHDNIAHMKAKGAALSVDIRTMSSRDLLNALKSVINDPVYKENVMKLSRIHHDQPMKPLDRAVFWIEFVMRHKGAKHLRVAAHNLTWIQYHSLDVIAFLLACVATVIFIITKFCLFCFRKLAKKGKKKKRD

Row | SMILES | Glucuronosyl transferase activity of UGT2B15 (UGT2B15) | Incidence of any QTc interval >500 msec [1] [%] | PR interval increase [1] [ms]
1 | CCCCc1oc2ccc(NS(C)(=O)=O)cc2c1C(=O)c1ccc(O)cc1 [Phenol-dronedarone] | significant glucuronosyl transferase activity | – | –
2 | CCCCc1oc2ccc(NS(C)(=O)=O)cc2c1C(=O)c1ccc(OCCCN(CCCC)CCCC)cc1.Cl [Dronedarone, N-(2-Butyl-3-(4-(3-(dibutylamino)propoxy)benzoyl)-5-benzofuranyl)methanesulfonamide, hydrochloride] | – | 7.7 | 13.4
